Experimental data published in patent US20130053430A1, “MODULATION OF CETP EXPRESSION” (Isis Pharmaceuticals, Inc., priority 2010, published 2013).
Strand notation (5' to 3'): a small letter for the sugar, then the base; units joined by * are phosphorothioate-linked, units joined directly phosphodiester-linked; [ ] holds rarer units or linkages, { } end groups; capitals alone tell only the bases. e = 2'-O-(2-methoxyethyl) (MOE); [5mC] = 5-methylcytosine; d = 2'-deoxy (DNA)

What was measured:
human CETP mRNA [1] = assay: Dose-dependent antisense inhibition of human CETP in SW872 liposarcoma cells (Example 3); format: cell-based; conditions: Lipofectin, ~16 hours (Example 3)
Procedure: ISIS 17291 ([…], 6-8-6 MOE (SEQ ID NO: 115)), ISIS 17302 ([…], 6-8-6 MOE (SEQ ID NO: 116)), and ISIS 17305 ([…], 6-8-6 MOE (SEQ ID NO: 117), first disclosed in U.S. Ser. No. 11/031,827 (incorporated by reference herein), were also tested under the same conditions. Cells were plated at a density of 50,000 cells per well in a 24-well plate and transfected using Lipofectin reagent with 50 nM, 150 nM, and 300 nM concentrations of each antisense oligonucleotide. After approximately 16 hours, RNA was isolated from the cells and CETP mRNA levels were measured by quantitative real-time PCR. CETP mRNA levels were normalized to total RNA content, as measured by the house-keeping gene, GAPDH mRNA levels. Results are presented in Table 5 as percent inhibition of CETP, relative to untreated control cells.

[2] = Plasma glucose in huCETP transgenic mice (Example 5); format: in vivo; conditions: 50 mg/kg i.p. twice per week
Procedure: (§1) The mice were divided into five treatment groups. The first four groups received intraperitoneal injections of ISIS 349511, ISIS 349512, ISIS 349515, or ISIS 349517 at a dose of 50 mg/kg twice per week for 6 weeks. The fifth group received intraperitoneal injections of saline twice weekly for 6 weeks.
Plasma glucose values were determined using a Beckman Glucose Analyzer II (Beckman Coulter) by a glucose oxidase method (Lott, J. A. et al., Clin. Chem. 21: 1754-1760, 1975).

human CETP mRNA [3] = assay: Antisense inhibition of human CETP mRNA in primary hepatocytes from huCETP transgenic mice (Example 4); format: cell-based, mouse; conditions: cytofectin, ~24 hours
In short: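 Primary hepatocytes from human CETP transgenic mice, 17,500 cells/well, transfected by cytofectin with 100 nM or 200 nM antisense oligonucleotide. After about 24 h, CETP mRNA quantified by real-time PCR, normalised to GAPDH, as percent inhibition versus untreated cells.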

[4] = Plasma cholesterol and triglyceride levels in huCETP transgenic mice (Example 5); format: in vivo; conditions: 50 mg/kg i.p. twice per week; for HDL / LDL / Total cholesterol / Triglycerides / VLDL: plasma
Procedure: as §1
Plasma cholesterol were extracted at weeks 3 and 6 by the method of Bligh and Dyer (Bligh, E. G. and Dyer, W. J. Can. J. Biochem. Physiol. 37: 911-917, 1959) and measured with an Olympus clinical analyzer (Hitachi Olympus AU400e, Melville, N.Y.). HDL, LDL and VLDL cholesterol were individually measured by HPLC. Triglyceride levels were measured with the use of a commercially available triglyceride kit (DCL Triglyceride Reagent; Diagnostic Chemicals Ltd.). The results are presented in Tables 13 and 14 and are expressed in mg/dL. There was a significant increase in HDL levels in mice treated with ISIS oligonucleotides.

CETP protein = assay: Plasma CETP protein by ELISA in huCETP transgenic mice (Example 5); format: in vivo, human; conditions: normal chow, 50 mg/kg i.p. twice per week for 6 weeks, compared to PBS control
Procedure: as §1
Plasma levels of CETP protein were measured by ELISA (Alpco, N.H.). […] The results are expressed as percentage inhibition compared to the PBS control.

human CETP mRNA [5] = assay: Dose-dependent antisense inhibition of human CETP in SW872 liposarcoma cells (Example 2); format: cell-based; conditions: Lipofectin, ~16 hours (Example 2)
Procedure: Cells were plated at a density of 50,000 cells per well in a 24-well plate and transfected using Lipofectin reagent with 50 nM, 150 nM, and 300 nM concentrations of each antisense oligonucleotide. After approximately 16 hours, RNA was isolated from the cells and CETP mRNA levels were measured by quantitative real-time PCR. CETP mRNA levels were normalized to total RNA content, as measured by the house-keeping gene, GAPDH mRNA levels. Results are presented in Table 4 as percent inhibition of CETP, relative to untreated control cells.

[6] = Body and organ weights of huCETP transgenic mice (Example 5); format: in vivo; conditions: 50 mg/kg i.p. twice per week
Procedure: as §1
The body weights of the mice were measured pre-dose and regularly during the treatment period. The body weights are presented in Table 10, and are expressed in grams.

human CETP mRNA [7] = assay: Antisense inhibition of human CETP mRNA in SW872 liposarcoma cells (Example 1); format: cell-based; conditions: 150 nM antisense oligonucleotide, lipofectin, ~24 hours, relative to untreated control cells
In short: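 SW872 cells transfected (lipofectin) with 150 nM 5-10-5 MOE gapmer (phosphorothioate, 5-methylcytosine). After about 24 h, CETP mRNA measured by qRT-PCR, normalized to GAPDH; values are % inhibition versus untreated cells.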

human CETP mRNA [8] = assay: Liver CETP mRNA in huCETP transgenic mice, normal chow (Example 5); format: in vivo; conditions: 50 mg/kg i.p. twice per week for 6 weeks, relative to PBS control
Procedure: Male huCETP transgenic mice were maintained on a 12-hour light/dark cycle and fed ad libitum normal Purina mouse chow. Animals were acclimated for at least 7 days in the research facility before initiation of the experiment. Antisense oligonucleotides (ASOs) were prepared in buffered saline (PBS) and sterilized by filtering through a 0.2 micron filter. Oligonucleotides were dissolved in 0.9% PBS for injection.
as §1
Twenty four hours after the final dose, the animals were sacrificed and liver tissue was isolated. Liver RNA was isolated for real-time PCR analysis of CETP. Two primer probe sets, hCETP (forward sequence […], designated herein as SEQ ID NO: 118; reverse sequence […], designated herein as SEQ ID NO: 119; probe sequence TGCGGACCGATGCCCCTGAX, designated herein as SEQ ID NO: 120) and hCETP2_LTS00182 (forward sequence […], designated herein as SEQ ID NO: 38; reverse sequence GGCTCACGCCTTTGCTGTT, designated herein as SEQ ID NO: 39: probe sequence CGGCTCGAGGTAGTGTTTACAGCCCTCX, designated herein as SEQ ID NO: 40), were used. These primer probe sets target the CETP mRNA transcript at different regions. As presented in Table 7, treatment with antisense oligonucleotides reduced CETP mRNA expression. The primer probe sets were used individually and collectively to measure CETP mRNA expression and gave similar results in all three cases. The RNA expression levels were normalized to murine Cyclophilin, a house-keeping gene, which is constitutively expressed. Cyclophilin levels were measured using the primer probe set described in Table 2. The results are expressed as percent inhibition of CETP mRNA, relative to the PBS control.

| Substance | percent inhibition of CETP (human CETP mRNA [1]; 50 nM) | percent inhibition of CETP (human CETP mRNA [1]; 150 nM) | percent inhibition of CETP (human CETP mRNA [1]; 300 nM) | Glucose levels ([2]; week 3) | Glucose levels ([2]; week 6) | Percent inhibition of human CETP mRNA (human CETP mRNA [3]; 100 nM) | Percent inhibition of human CETP mRNA (human CETP mRNA [3]; 200 nM) | Percentage of HDL in total cholesterol ([4]; Week 3) | Percentage of HDL in total cholesterol ([4]; week 6) | HDL ([4]; week 3) | LDL ([4]; week 3) | Total cholesterol ([4]; week 3) | Triglycerides ([4]; week 3) | HDL ([4]; week 6) | LDL ([4]; week 6) | Total cholesterol ([4]; week 6) | Triglycerides ([4]; week 6) | VLDL ([4]; week 6) | Percent inhibition of plasma CETP protein levels (CETP protein) | % inhibition (human CETP mRNA [7]) | also measured |
| --- | --- | --- | --- | --- | --- | --- | --- | --- | --- | --- | --- | --- | --- | --- | --- | --- | --- | --- | --- | --- | --- |
| ISIS 17291: GACAAGTGGCTGATCTGGAT, 6-8-6 MOE; first disclosed in U.S. Ser. No. 11/031,827 (antisense; sugars from the 5' end e6 d8 e6, backbone and methylation of C not given here) | 35% | 0% | 0% | – | – | – | – | – | – | – | – | – | – | – | – | – | – | – | – | – | – |
| ISIS 17302: GCTTGCCTTCTGCTACAAGC, 6-8-6 MOE; first disclosed in U.S. Ser. No. 11/031,827 (antisense; sugars from the 5' end e6 d8 e6, backbone and methylation of C not given here) | 0% | 41% | 45% | – | – | – | – | – | – | – | – | – | – | – | – | – | – | – | – | – | – |
| ISIS 17305: CCAGTGGGCCTTTAGGATAG, 6-8-6 MOE; first disclosed in U.S. Ser. No. 11/031,827 (antisense; sugars from the 5' end e6 d8 e6, backbone and methylation of C not given here) | 18% | 44% | 55% | – | – | – | – | – | – | – | – | – | – | – | – | – | – | – | – | – | – |
| ISIS 349512: 5-10-5 MOE gapmer TTGCCTTCTGCTACAAGCCC (sugars from the 5' end e5 d10 e5, backbone and methylation of C not given here) | – | – | – | 267 mg/dL | 248 mg/dL | 86% | 96% | 74% | 74% | 62 mg/dL | 14 mg/dL | 85 mg/dL | 100 mg/dL | 100 mg/dL | 31 mg/dL | 134 mg/dL | 92 mg/dL | 3 mg/dL | 76% | 92% | percent inhibition of CETP (human CETP mRNA [5]; 50 nM): 86%; percent inhibition of CETP (human CETP mRNA [5]; 150 nM): 98%; percent inhibition of CETP (human CETP mRNA [5]; 300 nM): 97%; Body weights ([6]; Week 0): 19 grams; Body weights ([6]; Week 1): 21 grams; Body weights ([6]; Week 2): 24 grams; Body weights ([6]; Week 4): 26 grams; Body weights ([6]; week 6): 28 grams; Organ weights, Kidney ([6]; week 6): 333.8 mg; Organ weights, Liver ([6]; week 6): 2.1 g; Organ weights, Spleen ([6]; week 6): 86.8 mg; Percent inhibition of liver CETP mRNA expression, Combined primer probe sets (human CETP mRNA [8]): 95%; Percent inhibition of liver CETP mRNA expression, Primer probe set hCETP (human CETP mRNA [8]): 96%; Percent inhibition of liver CETP mRNA expression, Primer probe set hCETP2_LTS00182 (human CETP mRNA [8]): 94% |
| ISIS 349513: 5-10-5 MOE gapmer TCCAGCTGTGAGCCTGGTGC (eT*e[5mC]*e[5mC]*eA*eG*d[5mC]*dT*dG*dT*dG*dA*dG*d[5mC]*d[5mC]*dT*eG*eG*eT*eG*e[5mC]) | 87% | 89% | 91% | – | – | 73% | 92% | – | – | – | – | – | – | – | – | – | – | – | – | 83% | percent inhibition of CETP (human CETP mRNA [5]; 50 nM): 97%; percent inhibition of CETP (human CETP mRNA [5]; 150 nM): 100%; percent inhibition of CETP (human CETP mRNA [5]; 300 nM): 95% |
| ISIS 349515: 5-10-5 MOE gapmer AACTTCCACCACGCTGGAGG (sugars from the 5' end e5 d10 e5, backbone and methylation of C not given here) | – | – | – | 275 mg/dL | 237 mg/dL | 94% | 94% | 68% | 75% | 60 mg/dL | 19 mg/dL | 89 mg/dL | 83 mg/dL | 66 mg/dL | 18 mg/dL | 87 mg/dL | 115 mg/dL | 4 mg/dL | 40% | 53% | Body weights ([6]; Week 0): 25 grams; Body weights ([6]; Week 1): 26 grams; Body weights ([6]; Week 2): 27 grams; Body weights ([6]; Week 4): 28 grams; Body weights ([6]; week 6): 28 grams; Organ weights, Kidney ([6]; week 6): 349.5 mg; Organ weights, Liver ([6]; week 6): 1.7 g; Organ weights, Spleen ([6]; week 6): 89.3 mg; Percent inhibition of liver CETP mRNA expression, Combined primer probe sets (human CETP mRNA [8]): 57%; Percent inhibition of liver CETP mRNA expression, Primer probe set hCETP (human CETP mRNA [8]): 63%; Percent inhibition of liver CETP mRNA expression, Primer probe set hCETP2_LTS00182 (human CETP mRNA [8]): 52% |
